In the case of `Cc1cc2cc3cc(C)[nH]c3cc2[nH]1`, the melting point is greater than 170 °C.
In the case of `COCC(C)OC(C)=O` (stereo unspecified) it was -87 °C; in that of `CN(C)CCc1c[nH]c2cccc(OP(=O)(O)O)c12`, 224 °C; in that of `COC(=O)c1ccc(C(=O)OC)c(Br)c1`, 52 to 54 °C.
As to `CC(C)(C)OC(=O)N[C@H]1CCC[C@H]1C(=O)O` (relative stereo), the melting point fell in the range of 90 to 94 °C.
In the case of `O=C1C=C2C=C[C@@H]3C[C@@]2(O1)[C@H]1CCCCN31` it was 142 °C; in that of `CC(=O)OC1=C(C(C)C)C(=O)C2=C(C1=O)C1(C)CCCC(C)(C)C1CC2OC(C)=O` (stereo unspecified), 121 °C.
In the case of `CCOC(=O)NNC(=O)Nc1ccccc1` it was 144 to 145 °C; in that of `O=C(O)c1cc2cc(Br)ccc2oc1=O`, 195 °C; in that of `Nc1ccc(C=O)cc1`, 71.5 °C.
In the case of `Cc1cc(C(F)(F)F)c2c(N)c(C#N)sc2n1` it was 182 to 184 °C.
The compound `O=C(C(=S)N1CCOCC1)c1ccccc1` had a melting point of 75 °C.
Compound `O=C=NS(=O)(=O)Cl` had a melting point of -44 °C.
On to `CCCCCCCCCCCCCCCCCCCCCC(=O)OCC`, for which the melting point worked out at 50 °C.
In the case of `CC(C)NCC(O)COc1ccc(COCCOC(C)C)cc1` (stereo unspecified) it was 100 °C.
In the case of `COc1cc(N)cc(OC)c1` it was 55 °C; in that of `CCOc1ccc(Cc2nccc3cc(OCC)c(OCC)cc23)cc1OCC`, 100 °C; in that of `CC1NC(C(=O)O)CS1` (mixture of isomers), 180 to 185 °C.
For `Cc1onc(-c2ccccc2)c1N=C=S`, the melting point was 73 to 77 °C.
The compound `Brc1ccc(Oc2ccccc2Br)cc1Br` displayed a melting point of less than 20 °C.
`Cc1ccc(OCC(=O)O)cc1C`: the melting point was determined as 163 °C.
In the case of `COc1cc(C=C2CCCC(=Cc3ccc(O)c(OC)c3)C2=O)ccc1O` it was 178 °C; in that of `COc1cc(OC)c(C(=O)/C=C/c2cc3c(cc2[N+](=O)[O-])OCO3)c(OC)c1`, 224 °C; in that of `COC(=O)c1scc(Br)c1O`, 80 °C.
In the case of `CCCCCCCCCCCCCCCCCCCCCC(=O)OC` it was 54 °C.
Take `COc1ccc(-c2cc3nc(-c4cccs4)cc(C(F)(F)F)n3n2)cc1`: the melting point was determined as 201 °C.
The compound `Cc1nc2ccc(I)cc2s1` came in with a melting point of 134 to 137 °C.
Compound `O=C(O)c1n[nH]c2ccccc12` yielded a melting point of 259 to 262 °C.
In the case of `NC(=S)C1=Cc2ccccc2OC1` it was 172 to 174 °C; in that of `CCCCCCCCCCCCCCCCCCc1ccccc1`, 29 °C.
In the case of `COc1ccc(-c2cc(=O)c3ccccc3o2)cc1OC` it was 155 °C.
`CSc1nnc(C(C)(C)C)c(=O)n1N` had a melting point of 126 °C.
In the case of `Cc1nccn1-c1ccccc1C(=O)O` it was 232 to 234 °C; in that of `Cc1ccc(C(=O)C(C)CN2CCCCC2)cc1` (stereo unspecified), 176 °C; in that of `O=C(Nc1c[nH]c(=O)[nH]c1=O)C(F)(F)C(F)(F)C(F)(F)C(F)(F)C(F)(F)C(F)(F)C(F)(F)C(F)(F)F`, 250 to 252 °C.
In the case of `O=P(OC(Cl)CCCl)(OC(Cl)CCCl)OC(Cl)CCCl` (stereo unspecified) it was 26.7 °C; in that of `CC(C)C1(C)N=C(c2nc3ccccc3cc2C(=O)O)NC1=O` (stereo unspecified), 224 °C; in that of `Cn1c(C(=O)O)cc2occc21`, 200 °C.
In the case of `O=c1c2ccccc2c(=O)n2n1C1C=CC2C1` it was 231 °C; in that of `CCN(CCO)c1cccc(C)c1`, -19 °C; in that of `Nc1ncc(Cl)cc1I`, 97 °C.
`N=C(N)NOCCC(N)C(=O)O` (stereo unspecified) came in with a melting point of 184 °C.
In the case of `NNC(=O)c1ccccc1OC(F)(F)F` it was 103 to 105 °C; in that of `Clc1cccc(Cl)c1I`, 64 to 67 °C; in that of `CC1(C)CC(=O)C2=C(C1)Nc1ccc3ccccc3c1C2c1ccc(O)cc1` (stereo unspecified), 314 °C.
In turn, `N#Cc1ccc(F)c([N+](=O)[O-])c1` registered a melting point of 92 °C.
In the case of `O=C(CCl)NC1CC1` it was 82 °C.
In the case of `NC(=O)c1cccc(CCl)c1` it was 125 to 127 °C.
In the case of `CN(C)CCC(c1ccc(Br)cc1)c1ccccn1` (stereo unspecified) it was less than 25 °C.
The compound `c1ccc(CNc2ccccc2)cc1` showed a melting point of 37.5 °C.
In the case of `CCOC(=O)Cn1cc(Cl)c(=O)c(Cl)c1` it was 209 to 211 °C; in that of `O=Nc1c(-c2ccc3ccccc3c2)nc2ncccn12`, 249 °C; in that of `Cc1c(C)n(C=O)c2ccccc12`, 89 °C.
The compound `CSc1nnc(N)s1` had a melting point of 176 to 180 °C.
In the case of `O=C1CCCN1c1ccc(F)cc1` it was 55 to 58 °C.
In the case of `O=C(O)c1ccc(-n2cccn2)cc1` it was 269 to 270 °C; in that of `O=C=Nc1c(F)cccc1F`, 24 °C.
In the case of `Cc1cc(C(=O)O)c(C)o1` it was 135 to 139 °C; in that of `CC(=O)Nc1ccc(S(N)(=O)=O)cc1`, 220 °C; in that of `C/C(=N/NC(N)=O)C(=O)Nc1ccccc1`, 236 to 238 °C.
In the case of `CN(C)CCOc1ccc(C(=C(CCCl)c2ccccc2)c2ccccc2)cc1`, the melting point came to 108 °C.
As to `ClCc1nc(-c2ccccc2)no1`, the melting point worked out at 42 °C.
In the case of `O=C1NC(=O)c2cc([N+](=O)[O-])ccc21` it was 206 °C; in that of `CC(=O)C1CC(CC(=O)O)C1(C)C` (stereo unspecified), 104 to 107 °C.
In the case of `CC(=O)OCC1OC(n2cnc3c(=O)[nH]c(N)nc32)C(OC(C)=O)C1OC(C)=O` (stereo unspecified) it was 224 to 233 °C; in that of `CCC(O)c1cc(C)ccc1O` (stereo unspecified), 143 °C.
The compound `CC(=O)N1CCc2cc(S(=O)(=O)Cl)ccc21` displayed a melting point of 172 to 174 °C.
In the case of `O=C(/C(=N/O)c1ccccc1)c1ccc2c3c(cccc13)CC2` it was 204 °C.
Take `c1ccc2cc(Nc3ccc4ccccc4c3)ccc2c1`: the melting point was determined as 172 °C.
In the case of `N/N=C(/C(=O)c1ccc2c3c(cccc13)CC2)c1ccccc1` it was 200 °C; in that of `CCOC(=O)c1ccc(N=C=S)cc1`, 57 °C; in that of `Nc1c(Oc2ccccc2)c(Oc2ccccc2)c(N)c2c1C(=O)c1ccccc1C2=O`, 195 °C.
In the case of `C1CCSCC1` it was 19 °C; in that of `N#Cc1cc2ccccc2oc1=N`, 200 °C.
In the case of `Cc1nc(/C(C#N)=C/c2ccc(N(C)C)cc2)sc1/N=N/c1ccc(F)cc1` it was 149 °C.
In the case of `Cc1cc(C)c(-c2cc(C)[nH]n2)c(C)c1`, the melting point lay in the range of 128 to 130 °C.
In the case of `COc1cc2c(cc1OC)C(CCO)NCC2` (stereo unspecified) it was 103 to 107 °C.
In the case of `NC(=O)C1CCN(c2nccc(C(F)(F)F)n2)CC1` it was 194 to 196 °C.
In the case of `O=C(O)C(F)(F)C(F)(F)C(F)(F)C(F)(F)C(F)(F)C(F)(F)C(F)(F)C(F)F` it was 67 °C; in that of `O=C(Cl)c1ccccc1COc1ccccc1`, 49 to 51 °C.
`NCCCNc1ncc(C(F)(F)F)cc1Cl` gave a melting point of 60 to 65 °C.
In the case of `O=C(Nc1cccc2c1c(S(=O)(=O)O)cc1oc(-c3ccccc3)nc12)c1ccccc1` it was 276 °C; in that of `CCCCCCCCCCCCC(C)CC` (stereo unspecified), -22 °C.
In the case of `CCCCCCCCC(O)CCCCCCCC`, the melting point was 61 °C.
Consider `O=C(O)C1CCCCN1` (stereo unspecified), for which the melting point came to 277 °C.
In the case of `O=C1Nc2ccc(Cl)cc2C(c2ccccc2Cl)=NC1O` (stereo unspecified) it was 166 °C; in that of `CC(CN1C(=O)c2cccnc2Nc2ccccc21)N(C)C` (stereo unspecified), 122 °C.
In the case of `CC1=C(C(=O)OC(C)C)C(c2cccc([N+](=O)[O-])c2)NC(=S)N1` (stereo unspecified) it was 225 °C; in that of `COc1cc(Br)cc(F)c1F`, 35 °C.
In the case of `CCCCOc1ccc(/C=N/NC(=O)C(=O)N/N=C/c2ccc(OCCCC)cc2)cc1` it was 301 to 303 °C; in that of `O=[N+]([O-])c1ccc2c(c1)OCCOCCOCCOCCOCCO2`, 85 to 88 °C.
As for `CCOC(=O)c1[nH]c2cc3[nH]c(C(=O)OCC)c(OC(C)=O)c3cc2c1OC(C)=O`, the melting point came out at 178 °C.
In the case of `Cc1nc2nn(C)cc2c(=O)n1N` it was 147 to 148 °C.
In the case of `O=C(O)C(F)(F)C(F)(F)C(F)(F)C(F)(F)C(F)(F)C(F)(F)C(F)(F)C(F)(F)C(F)(F)C(F)(F)F` it was 97.9 to 100 °C; in that of `COc1ccc(C(O)C(=O)O)cc1` (stereo unspecified), 108 to 111 °C.
In the case of `N#Cc1ccc2sccc2c1` it was 69 to 71 °C.
`COc1ccc(S(N)(=O)=O)c(OC)c1` returned a melting point of 168 °C.
In the case of `COc1cc2c(cc1OC)CC2` it was 91 °C.
In the case of `O=C(NC1CCCCC1)C(C(F)(F)F)C(F)(F)F` it was 190 to 192 °C; in that of `CC(C)(C)c1ccc(C(N)=O)cc1`, 173 °C.
For `CC(CN1c2ccccc2Sc2ccccc21)N(C)C` (stereo unspecified), the melting point was found to be 60 °C.
In the case of `O=C(O)c1cc2cc3c4c(c2oc1=O)CCCN4CCC3` it was 240 °C; in that of `O=C(CCl)Nc1ccc(Cl)cc1`, 168 to 170 °C.
In the case of `Nc1cccnc1O` it was 118 to 130 °C.
In the case of `O=[N+]([O-])c1ccccc1/C=C(/Cl)c1ccccn1` it was 60.5 to 61 °C; in that of `CC(C)(C)OC(=O)NCCCC[C@H](NC(=O)OCC1c2ccccc2-c2ccccc21)C(=O)O`, 134 to 137 °C.
`CC(=O)N(C)c1ccccc1C` had a melting point of 55.5 °C.
In the case of `CNC(=C[N+](=O)[O-])OC` it was 116 to 120 °C; in that of `CCCCCCCCCCCCCCCCC(=O)OC`, 30 °C.
In the case of `FCOC(C(F)(F)F)C(F)(F)F` it was less than 25 °C; in that of `O=C(O)c1cccc(OC(F)(F)F)c1`, 89 °C.

(Values after a melting point compilation (Tetko et al.).)
